Measured values as given in patent publication US10167262B2, “Herbicidal substituted 3-arylpyrazoles” (FMC CORPORATION, priority 2014, dated 2019).

Experiments:
Format in all cases: in vivo
[1] = system: sedge, umbrella (small-flower umbrella sedge, Cyperus difformis); test: Test B flooded paddy test, plant response rating 0-100; conditions: Flood, 250 g ai/ha; scale 0 to 100 (0 no effect, 100 complete control); 13 to 15 days
Outline: (§1)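 Test compounds are applied straight into paddy water held 3 cm above the soil surface, with that flood maintained for the whole test. After 13 to 15 days in the greenhouse, each species is scored visually relative to controls.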

[2] = system: ducksalad (Heteranthera limosa); test: as above; conditions: Flood, 250 g ai/ha; scale 0 to 100 (0 no effect, 100 complete control); 13 to 15 days
Outline: as §1

[3] = system: rice (Oryza sativa); test: as above; conditions: Flood, 250 g ai/ha; scale 0 to 100 (0 no effect, 100 complete control); 13 to 15 days
Outline: as §1

[4] = system: barnyardgrass (Echinochloa crus-galli); test: as above; conditions: Flood, 250 g ai/ha; scale 0 to 100 (0 no effect, 100 complete control); 13 to 15 days
Outline: as §1

[5] = system: goosegrass (Eleusine indica); test: Test C postemergence greenhouse test, plant response rating 0-100; conditions: for Plant response rating, Goosegrass: scale 0 to 100
Outline: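 Visual rating vs. controls, 0 (no effect) to 100 (complete control), 13–15 d after postemergence treatment. Potted plants, 1- to 4-leaf stage (2–18 cm), greenhouse-held.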

[6] = system: oilseed rape (Brassica napus); test: Test C pre-/postemergence greenhouse test, plant response rating 0-100; conditions: Preemergence
Outline: (§2)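 Pre- and postemergence greenhouse test: seeds sown in loam/sand and treated preemergence, or plants at 2–18 cm (1- to 4-leaf stage) in peat-based medium sprayed postemergence, with compounds in non-phytotoxic solvent plus surfactant. Visual rating versus untreated controls after 13–15 days, 0 (no effect) to 100 (complete control).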

[7] = system: waterhemp (common waterhemp, Amaranthus rudis); test: as above; conditions: Preemergence
Outline: as §2

[8] = system: barnyardgrass (Echinochloa crus-galli); test: as above; conditions: Preemergence
Outline: as §2

[9] = system: waterhemp_RES2, (ALS & HPPD resistant common waterhemp, Amaranthus rudis); test: Test E postemergence greenhouse test, plant response rating 0-100; conditions: scale 0 to 100
Protocol: At the same time, plants from these crop and weed species and also waterhemp_RES1, (ALS & Triazine resistant common waterhemp, Amaranthus rudis), and waterhemp_RES2, (ALS & HPPD resistant common waterhemp, Amaranthus rudis) were planted in pots containing Redi-Earth® planting medium (Scotts Company, 14111 Scottslawn Road, Marysville, Ohio 43041) comprising spaghnum peat moss, vermiculite, wetting agent and starter nutrients were treated with postemergence applications of test chemicals formulated in the same manner. Plants ranged in height from 2 to 18 cm for postemergence treatments (1- to 4-leaf stage).
Treated plants and controls were maintained in a greenhouse for 14 to 21 days, after which time all species were compared to controls and visually evaluated. Plant response ratings, summarized in Table E, are based on a scale of 0 to 100 where 0 is no effect and 100 is complete control. A dash (-) response means no test result.

[10] = system: Italian ryegrass (Lolium multiflorum); test: Test E pre-/postemergence greenhouse test, plant response rating 0-100; conditions: Postemergence, scale 0 to 100
Outline: (§3)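 Seeds sown in silt loam were treated preemergence, and seedlings in peat-based potting medium were treated postemergence at the 1- to 4-leaf stage (2-18 cm tall). Test chemicals were formulated in a non-phytotoxic solvent mixture with surfactant. After 14-21 days in the greenhouse, injury was rated visually against untreated controls (0 = no effect, 100 = complete control).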

[11] = system: wild poinsettia (Euphorbia heterophylla); test: as above; conditions: scale 0 to 100; for Poinsettia, Wild plant response rating: Preemergence
Outline: as §3

In the case of `Cn1cc(C(=O)c2ccccc2)c(-c2cc(Br)cc(Br)c2)n1` [Compound 53], the “Plant response rating, Sedge, Umbrella” value [1] is reported as 40, the “Plant response rating, Ducksalad” value [2] is reported as 0 and the “Plant response rating, Rice” value [3] is reported as 0. The “Plant response rating, Barnyardgrass” value [4] was 0, the “Plant response rating (0 to 100), Goosegrass” value ([5]; 62 g ai/ha) was 5 and the “Plant response rating (0 to 100), Goosegrass” value ([5]; 125 g ai/ha) was 5. For the same compound, the “Plant response rating, Goosegrass” value ([5]; 250 g ai/ha) was 5 and the “Plant response rating, Goosegrass” value ([5]; 500 g ai/ha) was 5.
With `Cn1cc(C(=O)c2ccccc2)c(-c2cc(Cl)cc(Cl)c2)n1` [Compound 54, [3-(3,5-dichlorophenyl)-1-methyl-1H-pyrazol-4-yl]phenylmethanone] the “Plant response rating, Oilseed Rape” value ([6]; 62 g ai/ha) was 0, the “Plant response rating, Oilseed Rape” value ([6]; 125 g ai/ha) was 0 and the “Plant response rating, Oilseed Rape” value ([6]; 250 g ai/ha) was 0. The “Plant response rating, Oilseed Rape” value ([6]; 500 g ai/ha) was 5, the “Plant response rating, Waterhemp” value ([7]; 62 g ai/ha) was 90 and the “Plant response rating, Waterhemp” value ([7]; 125 g ai/ha) was 95. For the same compound, the “Plant response rating, Waterhemp” value ([7]; 250 g ai/ha) was 98, the “Plant response rating, Waterhemp” value ([7]; 500 g ai/ha) was 100 and the “Plant response rating, Barnyardgrass” value ([8]; 62 g ai/ha) was 0. The “Plant response rating, Barnyardgrass” value ([8]; 125 g ai/ha) was 0, the “Plant response rating, Barnyardgrass” value ([8]; 250 g ai/ha) was 0 and the “Plant response rating, Barnyardgrass” value ([8]; 500 g ai/ha) was 0. The “Plant response rating, Waterhemp_RES2” value ([9]; 62 g ai/ha) was 80, the “Plant response rating, Waterhemp_RES2” value ([9]; 125 g ai/ha) was 85 and the “Plant response rating, Waterhemp_RES2” value ([9]; 250 g ai/ha) was 85. The “Plant response rating (0 to 100), Goosegrass” value ([5]; 31 g ai/ha) was 0, the “Plant response rating (0 to 100), Goosegrass” value ([5]; 62 g ai/ha) was 0 and the “Plant response rating (0 to 100), Goosegrass” value ([5]; 125 g ai/ha) was 0. The “Plant response rating, Goosegrass” value ([5]; 250 g ai/ha) was 0, the pest or weed control at 31 g/ha ([10]; Lolium multiflorum, post-emergence, 31 g ai/ha) was 0% and the pest or weed control at 62 g/ha ([10]; Lolium multiflorum, post-emergence, 62 g ai/ha) was 0%. The pest or weed control at 125 g/ha ([10]; Lolium multiflorum, post-emergence, 125 g ai/ha) was 0%, the pest or weed control at 250 g/ha ([10]; Lolium multiflorum, post-emergence, 250 g ai/ha) was 0% and the pest or weed control at 31 g/ha ([11]; Euphorbia heterophylla, post-emergence, Postemergence, 31 g ai/ha, read-out: Plant response rating, Poinsettia, Wild) was 0%. For the same compound, the pest or weed control at 62 g/ha ([11]; Euphorbia heterophylla, post-emergence, Postemergence, 62 g ai/ha, read-out: Plant response rating, Poinsettia, Wild) was 0%, the pest or weed control at 125 g/ha ([11]; Euphorbia heterophylla, post-emergence, Postemergence, 125 g ai/ha, read-out: Plant response rating, Poinsettia, Wild) was 0% and the pest or weed control at 250 g/ha ([11]; Euphorbia heterophylla, post-emergence, Postemergence, 250 g ai/ha, read-out: Plant response rating, Poinsettia, Wild) was 0%. For the same compound, the “Poinsettia, Wild plant response rating” value ([11]; 125 g ai/ha) was 80 and the “Poinsettia, Wild plant response rating” value ([11]; 250 g ai/ha) was 23.
With `Fc1ccccc1NN=C(c1ccccc1)c1c[nH]nc1-c1cc(Cl)cc(Cl)c1` [Compound 57] the “Plant response rating, Sedge, Umbrella” value [1] was 75, the “Plant response rating, Ducksalad” value [2] was 0 and the “Plant response rating, Rice” value [3] was 0. The “Plant response rating, Barnyardgrass” value [4] was 0, the “Plant response rating (0 to 100), Goosegrass” value ([5]; 31 g ai/ha) was 0 and the “Plant response rating (0 to 100), Goosegrass” value ([5]; 62 g ai/ha) was 0. The “Plant response rating (0 to 100), Goosegrass” value ([5]; 125 g ai/ha) was 0 and the “Plant response rating, Goosegrass” value ([5]; 250 g ai/ha) was 0.
For `Fc1cccc(NN=C(c2ccccc2)c2c[nH]nc2-c2cc(Cl)cc(Cl)c2)c1` [Compound 58], the “Plant response rating, Sedge, Umbrella” value [1] was 0, the “Plant response rating, Ducksalad” value [2] was 0 and the “Plant response rating, Rice” value [3] was 0. The “Plant response rating, Barnyardgrass” value [4] was 0, the “Plant response rating (0 to 100), Goosegrass” value ([5]; 62 g ai/ha) was 0 and the “Plant response rating (0 to 100), Goosegrass” value ([5]; 125 g ai/ha) was 0. The “Plant response rating, Goosegrass” value ([5]; 250 g ai/ha) was 0, the “Plant response rating, Goosegrass” value ([5]; 500 g ai/ha) was 5 and the “Plant response rating, Ryegrass, Italian” value ([10]; 31 g ai/ha) was 0. For the same compound, the “Plant response rating, Ryegrass, Italian” value ([10]; 62 g ai/ha) was 0, the “Plant response rating, Ryegrass, Italian” value ([10]; 125 g ai/ha) was 0 and the “Plant response rating, Ryegrass, Italian” value ([10]; 250 g ai/ha) was 0. The “Plant response rating, Ryegrass, Italian” value ([10]; 500 g ai/ha) was 0, the “Plant response rating, Poinsettia, Wild” value ([11]; Postemergence, 31 g ai/ha) was 0 and the “Plant response rating, Poinsettia, Wild” value ([11]; Postemergence, 62 g ai/ha) was 0. For the same compound, the “Plant response rating, Poinsettia, Wild” value ([11]; Postemergence, 125 g ai/ha) was 0, the “Plant response rating, Poinsettia, Wild” value ([11]; Postemergence, 250 g ai/ha) was 0 and the “Plant response rating, Poinsettia, Wild” value ([11]; Postemergence, 500 g ai/ha) was 0.
In the case of `Clc1cc(Cl)cc(-c2n[nH]cc2C(=NNc2ccccc2Cl)c2ccccc2)c1` [Compound 66], the “Plant response rating, Sedge, Umbrella” value [1] is reported as 70, the “Plant response rating, Ducksalad” value [2] is reported as 0 and the “Plant response rating, Rice” value [3] is reported as 0. The “Plant response rating, Barnyardgrass” value [4] was 0, the “Plant response rating (0 to 100), Goosegrass” value ([5]; 62 g ai/ha) was 0 and the “Plant response rating (0 to 100), Goosegrass” value ([5]; 125 g ai/ha) was 0. For the same compound, the “Plant response rating, Goosegrass” value ([5]; 250 g ai/ha) was 0 and the “Plant response rating, Goosegrass” value ([5]; 500 g ai/ha) was 0.
